Data on two molecules can be found in publication PMC7481701 (Royal Society Open Science, 2020).

For experiment [1], the target named is T1, ChTL activity of the purified human 20S proteasome (Homo sapiens, UniProt P28074).
T1 construct: The human erythrocyte 20S proteasome was obtained from Boston Biochem; purchased Boston Biochem; host or cells: human erythrocytes
The experiment can be described thus: Purified 20S proteasome activity assay, ChTL activity (Suc-LLVY-AMC). Format: biochemical. To be noted: for inhibitory activity against the 20S proteasome (in words): ChTL activity, figure 2b. The method, then:
For the proteasome inhibition assays, the peptide-7-amino-4-methylcoumarin (AMC) substrates (25 µM Suc-LLVY-AMC) and inhibitors were added to assay solutions. The assay buffer had the following composition: 25 mM HEPES, 0.5 mM EDTA, 0.03% SDS (pH 8.0). Human erythrocyte 20S proteasome (100 ng) was added to the assay buffer containing substrates and inhibitors at a final volume of 100 µl. After incubation at 37°C for 1 h, the fluorescence emission spectrum at 450 nm (λex, 365 nm) was measured by using a fluorescence microplate reader. The inhibition against PGPH activity of the 20S proteasome was determined as described above except that Z-LLE-AMC was used as the substrate. For the assay of inhibition against the trypsin-like activity of complex 2, the SDS was omitted from the assay buffer and Boc-LRR-AMC was used as the substrate. The assay of inhibition against the trypsin-like activity of complexes 1 and 3 was carried out by the Screening Committee of Anticancer Drugs (Cancer Chemotherapy Center, Japanese Foundation for Cancer Research).
[picture] For the proteasome inhibition assays, the peptide-AMC substrates (25 µM Suc-LLVY-AMC) and inhibitors were added to assay solutions. The assay buffer had the following composition: 25 mM HEPES, 0.5 mM EDTA, 0.03% SDS (pH 8.0). Human erythrocyte 20S proteasome (100 ng) was added to the assay buffer containing substrates and inhibitors at a final volume of 100 µL. After incubation at 37°C for 1 h, the fluorescence emission spectrum at 450 nm (λex, 365 nm) was measured by using a fluorescence microplate reader.

In experiment [2] the target is T2, ChTL activity of the 20S proteasome from cell lysates (colon26) (Mus musculus, UniProt O55234).
T2 construct: endogenous in cells; host or cells: colon26 whole-cell lysate
Description: Inhibition against chymotrypsin-like activity in whole-cell lysates. Format: biochemical. Conditions: whole-cell lysate, figure S3. The method, then: Cultures of colon26 were grown at 37°C in RPMI1640 supplemented with 10% fetal bovine serum. Whole-cell lysates were prepared according to the method in the literature.
For the determination of inhibitory activity in whole-cell lysates, peptide-AMC substrates (50 µM Suc-LLVY-AMC), inhibitors and the whole-cell lysate (15 µg) were added to the assay solutions. The following assay buffer was used: 25 mM HEPES, 0.5 mM EDTA, 0.03% SDS (pH 8.0). After incubation at 37°C for 4 h, the fluorescence emission was measured at 450 nm (λex = 365 nm) by using a fluorescence microplate reader.
For the determination of inhibitory activity in the whole cell lysate, peptide-AMC substrates (50 µM Suc-LLVY-AMC), inhibitors, and the whole cell lysate (15 µg) were added to the assay solutions. The following assay buffer was used: 25 mM HEPES, 0.5 mM EDTA, 0.03% SDS (pH 8.0). After incubation at 37 °C for 4 h, the fluorescence emission was measured at 450 nm (λex = 365 nm) by using a fluorescence microplate reader.

The mark [3] stands for this setting: purified 20S proteasome, figure S2.

SMILES strings stand for the structures.

For `NCCN.[Cl-].[Cl-].[Pt+2].c1ccncc1.c1ccncc1` [Pt(py)2(ethylenediamine), (ethylenediamine)bispyridine platinum(II) chloride, reference compound], the “inhibitory activity against the 20S proteasome (in words)” value in experiment [1] (setting [3]) is listed as “no inhibitory activity”.

For the molecule `NCCNCc1c2ccccc2cc2ccccc12` [N-9-anthracenylmethyl-1,2-ethanediamine, reference compound], in experiment [2], the “inhibition in the cell-free system (in words)” value is on record as “no inhibition”. Moreover, the “inhibitory activity against the 20S proteasome (in words)” value in experiment [1] (setting [3]) was “weak inhibitory activity”. Besides, the remaining activity at 10 µM in experiment [1] (at 10 µM, purified 20S proteasome, figure S2, read-out: residual activity of ChTL) worked out at 43%. This molecule also returned an IC50 in experiment [1] (purified human erythrocyte 20S proteasome 100 ng, 25 µM Suc-LLVY-AMC, 37°C 1 h, mean ± s.d. (n = 3)) of about 10 µM.
